Assay results published in ChEMBL document CHEMBL3751745, “Aryl-imidazothiadiazole analogues as microtubule disrupting agents” (Medchemcomm, 2015).
Activity calls are given as the source filed them. No cut-off for these calls is given here.

Columns and labels:
HeLa [1] = assay: Induction of apoptosis in human HeLa cells assessed as activation of cyclin B1 mRNA levels at 5 uM after 24 hrs by semi-quantitative RT-PCR; type: functional, cell-based
HeLa [2] = assay: Induction of apoptosis in human HeLa cells assessed as induction of cyclin B1 levels at 5 uM after 24 hrs by Western blot analysis; type: functional, cell-based
Tubulin (Homo sapiens) = Tubulin (Homo sapiens) (UniProt P68371+Q9H4B7+P0DPH7+P68366+Q13509+Q71U36+P04350+Q3ZCM7+P07437+P68363+Q9BQE3+Q6PEY2+Q13885+Q9BVA1+Q9BUF5); assay: Inhibition of colchicine binding to tubulin (unknown origin) assessed as decrease in tubulin-colchicine complex at 0 to 15 uM incubated for 1 hr by fluorescence based colchicine competitive binding assay; type: protein-complex assay
HeLa [3] = assay: Induction of apoptosis in human HeLa cells assessed as activation of caspase-3 activity at 2 uM after 24 hrs by ELISA; type: functional
Tubulin = Tubulin (Sus scrofa, UniProt P02554+P02550); assay: Inhibition of porcine brain tubulin polymerization by fluorescence based assay
HeLa [4] = assay: Disruption of microtubule organization in human HeLa cells at 5 uM after 24 hrs by DAPI-FITC staining based confocal microscopic analysis; type: functional, cell-based
Tubulin (Sus scrofa) = Tubulin (Sus scrofa) (UniProt P02554+P02550); assay: Inhibition of porcine brain tubulin polymerization at 5 uM by fluorescence based assay
Sequence of Tubulin (Sus scrofa) (P02550 whole entry, looked up): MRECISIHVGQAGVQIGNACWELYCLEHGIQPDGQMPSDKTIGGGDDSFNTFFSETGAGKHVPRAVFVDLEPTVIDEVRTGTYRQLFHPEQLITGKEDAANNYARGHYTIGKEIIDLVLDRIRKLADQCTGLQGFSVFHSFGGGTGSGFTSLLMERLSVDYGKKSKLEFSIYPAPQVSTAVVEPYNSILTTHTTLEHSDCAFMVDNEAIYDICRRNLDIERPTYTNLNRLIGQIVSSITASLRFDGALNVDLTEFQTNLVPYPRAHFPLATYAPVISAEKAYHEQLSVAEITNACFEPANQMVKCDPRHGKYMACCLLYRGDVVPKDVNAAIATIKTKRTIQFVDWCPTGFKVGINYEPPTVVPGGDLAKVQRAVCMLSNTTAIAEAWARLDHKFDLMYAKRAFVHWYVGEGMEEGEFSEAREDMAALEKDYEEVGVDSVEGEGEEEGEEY
Sequence of Tubulin (Sus scrofa) (P02554 whole entry, looked up): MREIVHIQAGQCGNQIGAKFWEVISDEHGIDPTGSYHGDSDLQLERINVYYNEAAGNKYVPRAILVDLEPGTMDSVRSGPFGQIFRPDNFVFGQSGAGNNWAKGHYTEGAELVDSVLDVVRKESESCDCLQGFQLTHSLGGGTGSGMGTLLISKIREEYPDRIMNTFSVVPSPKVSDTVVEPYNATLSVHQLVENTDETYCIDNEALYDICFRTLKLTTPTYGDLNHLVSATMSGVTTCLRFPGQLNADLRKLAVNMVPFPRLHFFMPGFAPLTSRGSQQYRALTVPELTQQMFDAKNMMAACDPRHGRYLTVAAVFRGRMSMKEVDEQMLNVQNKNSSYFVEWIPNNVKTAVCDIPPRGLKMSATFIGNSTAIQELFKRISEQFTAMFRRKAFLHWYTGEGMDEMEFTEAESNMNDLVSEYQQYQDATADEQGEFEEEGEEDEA

MCF7 = assay: Cytotoxicity against human MCF7 cells assessed as cell viability after 48 hrs by SRB assay; type: functional, cell-based; conditions: MCF7, 48 h
[5] = Cytotoxicity against human DU145 cells assessed as cell viability after 48 hrs by SRB assay; type: functional, cell-based; conditions: DU-145, 48 h
[6] = Cytotoxicity against human MIAPaCa2 cells assessed as cell viability after 48 hrs by SRB assay; type: functional, cell-based; conditions: MIA PaCa-2, 48 h
HeLa [7] = assay: Induction of cell cycle arrest in human HeLa cells assessed as cell arrest at accumulation at G2/M phase at 2 uM after 24 hrs by flow cytometric analysis (reference value: 25.49%); type: functional
HeLa [8] = assay: Cytotoxicity against human HeLa cells assessed as cell viability after 48 hrs by SRB assay; type: functional, cell-based
HeLa [9] = assay: Induction of apoptosis in human HeLa cells assessed as activation of caspase-3 activity at 4 uM after 24 hrs by ELISA; type: functional
HeLa [10] = assay: Induction of cell cycle arrest in human HeLa cells assessed as cell arrest at accumulation at G2/M phase at 5 uM after 24 hrs by flow cytometric analysis (reference value: 25.49%); type: functional

Row | Structure (SMILES) | IC50 (MCF7) | IC50 [5] | IC50 [6] | IC50 (HeLa [8]) | also measured
1 | CC(=O)O[C@H]1C(=O)[C@@]2(C)[C@H]([C@H](OC(=O)c3ccccc3)[C@]3(O)C[C@H](OC(=O)[C@H](O)[C@@H](NC(=O)c4ccccc4)c4ccccc4)C(C)=C1C3(C)C)[C@]1(OC(C)=O)CO[C@@H]1C[C@@H]2O | – | – | – | – | Activity (HeLa [1]): Active; Activity (HeLa [2]): Active; inhibition (Tubulin (Homo sapiens)): inactive
2 | CCc1nn2c(-c3ccc4ccccc4c3)c(-c3cc(OC)c(OC)c(OC)c3)nc2s1 | 2.4 µM | 4.49 µM | 1.2 µM | 1.6 µM | Activity (HeLa [1]): Active; fold change (FC) (HeLa [3]): 2.5; IC50 (Tubulin): 1.7 µM; Activity (HeLa [4]): Active; inhibition (Tubulin (Sus scrofa)): 75.1%; Activity (HeLa [7]): 64.84%; fold change (FC) (HeLa [9]): 2.5; Activity (HeLa [2]): Active; Activity (HeLa [10]): 78.3%; inhibition (Tubulin (Homo sapiens)): Dose-dependent effect
3 | CCc1ccc(-c2c(-c3cc(OC)c(OC)c(OC)c3)nc3sc(CC)nn23)cc1 | 12.5 µM | 24.4 µM | 14.6 µM | 12.4 µM | –
4 | COc1cc(-c2nc3sc(C4CC4)nn3c2-c2ccc(OC(F)(F)F)cc2)cc(OC)c1OC | 16.8 µM | 13 µM | 18.2 µM | 11.3 µM | –
5 | COc1cc(-c2nc3sc(C4CC4)nn3c2-c2ccc(C)cc2)cc(OC)c1OC | 26.1 µM | 18.5 µM | 29.8 µM | 20.5 µM | –
6 | COc1cc(-c2nc3sc(C4CC4)nn3c2-c2ccc3c(c2)OCO3)cc(OC)c1OC | 25.6 µM | 12.8 µM | 19.4 µM | 16.8 µM | –
7 | CCc1nn2c(-c3ccc(OC(F)(F)F)cc3)c(-c3cc(OC)c(OC)c(OC)c3)nc2s1 | 14.8 µM | 23.5 µM | 16.4 µM | 13.4 µM | –
8 | COC(=O)Nc1nc2cc(C(=O)c3cccs3)ccc2[nH]1 | – | – | – | – | inhibition (Tubulin (Sus scrofa)): 79.2%
9 | COc1cc(-c2nc3sc(C4CC4)nn3c2-c2ccc(N(C)C)cc2)cc(OC)c1OC | 3.4 µM | 3.45 µM | 2.5 µM | 2.9 µM | Activity (HeLa [1]): Active; fold change (FC) (HeLa [3]): 2.5; IC50 (Tubulin): 3.8 µM; Activity (HeLa [4]): Active; inhibition (Tubulin (Sus scrofa)): 60.9%; Activity (HeLa [7]): 57.66%; fold change (FC) (HeLa [9]): 2.5; Activity (HeLa [2]): Active; Activity (HeLa [10]): 72.5%
10 | COc1cc(F)ccc1-c1c(-c2cc(OC)c(OC)c(OC)c2)nc2sc(C3CC3)nn12 | 34.8 µM | 22.4 µM | 40.9 µM | 25.9 µM | –
11 | COc1cc(-c2nc3sc(C4CC4)nn3c2-c2ccc(C(F)(F)F)cc2)cc(OC)c1OC | 18.4 µM | 15.2 µM | 23.4 µM | 43.5 µM | –
12 | CCc1nn2c(-c3ccc4c(c3)OCO4)c(-c3cc(OC)c(OC)c(OC)c3)nc2s1 | 11.5 µM | 18.8 µM | 13.1 µM | 8.7 µM | –
13 | COc1cc(-c2nc3sc(C4CC4)nn3c2-c2ccc(F)cc2)cc(OC)c1OC | 19.6 µM | 15.1 µM | 27.6 µM | 15.6 µM | –
14 | CCc1nn2c(-c3cc(OC)c(OC)c(OC)c3)c(-c3cc(OC)c(OC)c(OC)c3)nc2s1 | 20.4 µM | 13.4 µM | 19.6 µM | 17.5 µM | –
15 | CCc1nn2c(-c3ccc(F)c(Cl)c3)c(-c3cc(OC)c(OC)c(OC)c3)nc2s1 | 14.5 µM | 11.4 µM | 17.3 µM | 13.9 µM | –
16 | CCc1nn2c(-c3ccccc3)c(-c3cc(OC)c(OC)c(OC)c3)nc2s1 | 11.5 µM | 14.6 µM | 13.4 µM | 10.8 µM | –
17 | COc1cc(-c2nc3sc(C4CC4)nn3c2-c2ccc(Cl)cc2)cc(OC)c1OC | 22.9 µM | 11.6 µM | 17.4 µM | 19.2 µM | –
18 | CCc1nn2c(-c3ccc(N(C)C)cc3)c(-c3cc(OC)c(OC)c(OC)c3)nc2s1 | 1.9 µM | 2.75 µM | 2.5 µM | 2.2 µM | Activity (HeLa [1]): Active; fold change (FC) (HeLa [3]): 2.5; IC50 (Tubulin): 3.1 µM; Activity (HeLa [4]): Active; inhibition (Tubulin (Sus scrofa)): 66.8%; Activity (HeLa [7]): 55.3%; fold change (FC) (HeLa [9]): 2.5; Activity (HeLa [2]): Active; Activity (HeLa [10]): 67.53%

Row | Structure (SMILES) | IC50 (MCF7) | IC50 [5] | IC50 [6] | IC50 (HeLa [8]) | also measured
19 | CCc1nn2c(-c3ccc(C(F)(F)F)cc3)c(-c3cc(OC)c(OC)c(OC)c3)nc2s1 | 11.8 µM | 18.3 µM | 14.8 µM | 10.5 µM | –
20 | COc1cc(-c2nc3sc(C4CC4)nn3c2-c2ccc(F)c(Cl)c2)cc(OC)c1OC | 18.7 µM | 13.7 µM | 20.7 µM | 15.5 µM | –
21 | COc1cc(-c2nc3sc(C4CC4)nn3c2-c2cc(OC)c(OC)c(OC)c2)cc(OC)c1OC | 36.5 µM | 52.1 µM | 39.6 µM | 13.7 µM | –
22 | CCc1ccc(-c2c(-c3cc(OC)c(OC)c(OC)c3)nc3sc(C4CC4)nn23)cc1 | 29.3 µM | 13.5 µM | 39.8 µM | 36.2 µM | –
23 | COc1cc(-c2nc3sc(C4CC4)nn3c2-c2ccccc2)cc(OC)c1OC | 42.3 µM | 25.6 µM | 31.5 µM | 35.4 µM | –
24 | CCc1nn2c(-c3ccc(Cl)cc3)c(-c3cc(OC)c(OC)c(OC)c3)nc2s1 | 12.2 µM | 19.1 µM | 15.4 µM | 13.7 µM | –
25 | CCc1nn2c(-c3ccc(OC)c(OC)c3)c(-c3cc(OC)c(OC)c(OC)c3)nc2s1 | 11.4 µM | 13.3 µM | 14.6 µM | 14.6 µM | –
26 | COc1ccc(/C=C\c2cc(OC)c(OC)c(OC)c2)cc1O [COMBRETASTATIN A4] | 0.134 µM | 0.12 µM | 0.087 µM | 0.15 µM | Activity (HeLa [1]): Active; fold change (FC) (HeLa [3]): 2.5; Activity (HeLa [4]): Active; fold change (FC) (HeLa [9]): 2.5; Activity (HeLa [2]): Active; Activity (HeLa [10]): 83.95%
27 | CCc1nn2c(-c3ccc(F)cc3)c(-c3cc(OC)c(OC)c(OC)c3)nc2s1 | 9.8 µM | 16.6 µM | 10.5 µM | 11.3 µM | –
28 | COc1cc(-c2nc3sc(C4CC4)nn3c2-c2ccc3ccccc3c2)cc(OC)c1OC | 15.3 µM | 45.2 µM | 21.6 µM | 19.4 µM | –
29 | CCc1nn2c(-c3ccc(F)cc3OC)c(-c3cc(OC)c(OC)c(OC)c3)nc2s1 | 30.2 µM | 35.2 µM | 29.1 µM | 28.1 µM | –
30 | CCc1nn2c(-c3ccc(C)cc3)c(-c3cc(OC)c(OC)c(OC)c3)nc2s1 | 16.7 µM | 21.7 µM | 20.4 µM | 14.8 µM | –
31 | COc1ccc(-c2c(-c3cc(OC)c(OC)c(OC)c3)nc3sc(C4CC4)nn23)cc1OC | 12.9 µM | 16.6 µM | 19.6 µM | 15.6 µM | –
32 | CCc1nn2c(-c3cc(F)cc(F)c3)c(-c3cc(OC)c(OC)c(OC)c3)nc2s1 | 36.4 µM | 21.6 µM | 30.6 µM | 26.4 µM | –
33 | CCc1nn2c(-c3ccc(OC)cc3)c(-c3cc(OC)c(OC)c(OC)c3)nc2s1 | 25.4 µM | 25.4 µM | 30.5 µM | 21.6 µM | –
34 | COc1ccc(-c2c(-c3cc(OC)c(OC)c(OC)c3)nc3sc(C4CC4)nn23)cc1 | 11.6 µM | 10.5 µM | 16.9 µM | 14.6 µM | –
35 | COc1cc(-c2nc3sc(C4CC4)nn3c2-c2cc(F)cc(F)c2)cc(OC)c1OC | 23.4 µM | 16.9 µM | 29.6 µM | 17.3 µM | –
